Reference: patent publication US20190388377A1, “COMPOSITIONS AND METHODS FOR THE TREATMENT OF LIVER DISEASES AND DISORDERS” (AXCELLA HEALTH INC., priority 2018, published 2019)

Columns and labels:
[1] = tested on: primary human hepatocytes; assay: Intracellular lipid accumulation after 72 h by fluorescence microscopy, PHH model for NASH, Example 2; type: cell-based; details: FFA+TNFα; for Lipid Median (median fold change from control): 72 h
Method: PHH from two healthy human donors (Lonza, TRL) were seeded on day 0 at density of 6e04 cells in 96 well optical microplates (Thermofisher) in hepatocyte plating media (William's E medium, WEM) (Gibco) supplemented with 10% heat-inactivated FBS (Atlanta Bio), 2 mM Glutamax (Gibco), and 0.2% Primocin (InVivoGen) and incubated for 6 hours at 37° C., 5% CO2. After 6 hours, cells were washed twice and incubated overnight at 37° C., 5% CO2 with Hepatocytes defined medium (Corning) supplemented with 2 mM Glutamax (Gibco), and 1× Penicillin/Streptomycin. On day 1, cells were washed twice and incubated for 24 h in the hepatocyte culture media in the same conditions described above.
On day 2, cells were washed twice with DPBS 1× (Gibco) to remove excess amino acids and maintained in pretreatment media (1×HMDB, a defined custom amino acid concentration based on the mean physiological concentrations in blood, in WEM±supplemental amino acids): • a. Amino acid-free WEM (US Biologicals) supplemented with 11 mM Glucose (Sigma), 0.272 mM Sodium Pyruvate (Sigma), 1× P/S (Gibco) and containing 1×HMDB with no supplemental amino acids; or • b. The same media described above 1×HMDB WEM with supplemental amino acid and amino acid combination treatments at various concentrations. Cells were maintained in the defined media (a. & b.) for 24 hours at 37° C., 5% CO2. The HMDB values are published in the Human Metabolome Database (Wishart D S, Tzur D, Knox C, et al., HMDB: the Human Metabolome Database. Nucleic Acids Res. 2007 January; 35 (Database issue):D521-6. 17202168; which is hereby incorporated by reference in its entirety). Co-Treatment with Free Fatty Acids and Amino Acids Combination
After 24 h pre-treatment, cells maintained in the pretreatment media±supplemental amino acids (section (a. & b.) described above) were exposed to free fatty acids (FFA) at 250 uM with a ratio of 2:1 (Oleate:Palmitate) supplemented with TNF-α (Thermofisher) at 1 ng/ml. Cells were incubated with the FFAs mixture (FFAs+TNF-α)±supplemental amino acids treatments for 24 hours at 37° C., 5% CO2. After 24 hours incubation, media was removed for cytokine analysis and replaced by fresh media containing the same conditions described above (FFAs mixture±supplemental amino acids treatments). Cells were incubated for an additional 48 hours for a total of 72 hours of FFA and TNF-α stimulation. After 72 hours of incubation, media was removed for albumin and urea analysis and the cells were fixed for nuclei and lipid staining.
After 72 hours, cells were washed twice in 100 ul PBS 1× (Gibco), fixed with 4% Paraformaldehyde, and washed twice with PBS 1× (100 ul). After fixation, lipids were stained with HCS LipidTOX Red Neutral (Thermofisher Scientific) diluted 1000× and nuclei were stained with Hoechst 3342 (Life Technologies) diluted to 4 ug/ml. The LipidTOX™ neutral lipid stain has an extremely high affinity for neutral lipid droplets that was detected by fluorescence microscopy using a high content imager (Molecular Devices). Data was normalized to the cell concentration determined by nuclei count. Images were analyzed and total lipid area was calculated using granularity module in MetaXpress 6 software. Data is reported as median fold change from control, statistical analysis was done using t-Test.

[2] = tested on: alpha smooth muscle actin (αSMA); assay: HSC activation by alpha SMA immunostaining, TGFβ1-stimulated hepatic stellate cells; type: cell-based, human
Method: Primary human hepatic stellate cells were obtained from Samsara Sciences. Cells from three different donors were grown in Complete HSC Medium to ˜80% confluence in T75 or T150 flasks below passage 10 were seeded into sterile, collagen I coated, 96-well optical plastic microplates (ThermoScientific) and incubated overnight at 37° C., 5% CO2 in a humidified incubator in DMEM with 2% Fetal Bovine Serum and 1% Antimycotic. […] After 24 hours of stimulus, supernatant was removed and used to measure Procollagen III and cells were then washed and fixed with 4% paraformaldehyde for further staining.
Procollagen III, an important biomarker of fibrosis was measured by ELISA (Human PCIII Elisa Kit, G-Biosciences) following the manufacturer's recommendations. Fixed cells with 4% paraformaldehyde were permeabilized with 0.1% Triton X-100 then immunostained for alpha SMA and labeled for EdU incorporation.
Cells were imaged using ImageXpress micro confocal high content imager (Molecular Devices). […] Image analysis was performed using MetaXpress version 6.2.3.733 (Molecular Devices).
Fixed cells immunostained for alpha smooth muscle actin (αSMA) were analyzed and stained area was normalized to total nuclei count. Fold change were calculated relative to the baseline amino acid (1×HMDB) condition stimulated with 3 ng/mL TGFβ1.

[3] = tested on: primary human hepatocytes; assay: Intracellular triglyceride level after 72 h, colorimetric assay, Example 3; type: cell-based
Method: On day 2, cells were washed twice with DPBS 1× (Gibco) and maintained in: • a. Amino acid-free WEM (US Biologicals) supplemented with 11 mM Glucose (Sigma), 0.272 mM Sodium Pyruvate (Sigma), 1× P/S (Gibco) and containing a defined custom amino acid concentration based on the mean physiological concentrations in blood (1× HMDB WEM (−) supplemental amino acids); or • b. The same media described above 1×HMDB WEM (+) supplemental amino acids treatment dose at a 30× of HMDB amino acid concentration. Cells were maintained in the defined amino acids media (a. & b.) for 24 hours at 37° C., 5% CO2. Co-Treatment with Free Fatty Acids and Various Amino Acids Supplemental Treatments
After 24 h pre-treatment, cells maintained in the same media (a. & b.) described above 1×HMDB±supplemental amino acids were now exposed to free fatty acids (FFA) at 250 uM with a ratio of 2:1 (Oleate:Palmitate) supplemented with TNF-α (Thermofisher) at 1 ng/ml or vehicle. Cells with the FFAs+TNFα mixture±amino acids treatments were incubated for 72 hours at 37° C., 5% CO2 with a media change after the first 24 hours.
After 72 hours, cells were washed once with cold PBS 1× (Gibco), scrapped off and collected into 75 ul of standard diluent (Cayman). Collected cells were vortexed for 1 min at a 2500 rpm speed followed by two times sonication (Elmasonic sonicator) for 1 min each. Supernatants were collected for triglyceride analysis after centrifugation at 1000 rpm for 10 min at 4° C. Intracellular triglyceride level was assessed using triglyceride colorimetric assay kit (Cayman) and following manufacturer's recommendations. Data was normalized to the total amount of protein using Bicinchoninic Acid Protein Assay Kit (Sigma). Data is reported as median fold change from FFAs+TNFα condition, statistical analysis was done using t-Test.

With `CC(=O)N[C@@H](CS)C(=O)O` [Nac, N-acetylcysteine] the “Lipid Median (median fold change from control)” value ([1]; donor 1, 5 mM) was −0.013, the “Lipid Median (median fold change from control)” value ([1]; donor 2, 7.5 mM) was −0.359 and the “lipid accumulation (in words)” value ([1]; hepatocyte donor 1) was “did not reduce lipid accumulation”. The “lipid accumulation (in words)” value ([1]; hepatocyte donor 2) was “reduced lipid accumulation but less than the previously described combinations”, the “alpha SMA stained area (in words)” value [2] was “reduced the alpha SMA stained area at a high level” and the “Triglyceride Level relative to the baseline FFA + TNF, Median” value ([3]; FFA + TNF, 72 h, two donors, AA Conc 1X, Nac/Car 7.5 mM) was −1.172. The “triglyceride level (in words)” value ([3]; FFAs+TNFα, two healthy donors) was “reduces triglyceride level but the effect was less pronounced than the combinations described previously”.
